Several values for one entry are separate records, joined by “and”; a condition that tells them apart may be missing. Equal values may be shown once. Entries after “also recorded” stand apart in the source; their conditions may differ. Read-outs that look alike come from different tables or passages of the source.
How the values were obtained:
[1] = system: leukemia cell lines MOLM-13, OCI-AML4, and SKM-1; experiment: Growth inhibition assays, pinometostat with RAS pathway inhibitors; format: cell-based; conditions: pinometostat 3 μM, 300 nM, 150 nM or 75 nM plus SCH772984, Trametinib or Sorafenib; FIG. 13
Description: Growth inhibition assays were performed using leukemia cell lines to determine whether there is any synergy between pinometostat and RAS pathway inhibitors. The leukemia cell lines used were MOLM-13, OCI-AML4, and SKM-1. For these studies, different RAS pathway inhibitors were used, including SCH772984 (e.g., an ERK inhibitor), Trametinib (e.g., a MEK inhibitor), and Sorafenib (e.g., a Raf kinase inhibitor).

[2] = biological target: DOT1L (Homo sapiens, UniProt Q8TEK3); experiment: DOT1L affinity; format: binding
DOT1L, sequence (Q8TEK3 whole entry): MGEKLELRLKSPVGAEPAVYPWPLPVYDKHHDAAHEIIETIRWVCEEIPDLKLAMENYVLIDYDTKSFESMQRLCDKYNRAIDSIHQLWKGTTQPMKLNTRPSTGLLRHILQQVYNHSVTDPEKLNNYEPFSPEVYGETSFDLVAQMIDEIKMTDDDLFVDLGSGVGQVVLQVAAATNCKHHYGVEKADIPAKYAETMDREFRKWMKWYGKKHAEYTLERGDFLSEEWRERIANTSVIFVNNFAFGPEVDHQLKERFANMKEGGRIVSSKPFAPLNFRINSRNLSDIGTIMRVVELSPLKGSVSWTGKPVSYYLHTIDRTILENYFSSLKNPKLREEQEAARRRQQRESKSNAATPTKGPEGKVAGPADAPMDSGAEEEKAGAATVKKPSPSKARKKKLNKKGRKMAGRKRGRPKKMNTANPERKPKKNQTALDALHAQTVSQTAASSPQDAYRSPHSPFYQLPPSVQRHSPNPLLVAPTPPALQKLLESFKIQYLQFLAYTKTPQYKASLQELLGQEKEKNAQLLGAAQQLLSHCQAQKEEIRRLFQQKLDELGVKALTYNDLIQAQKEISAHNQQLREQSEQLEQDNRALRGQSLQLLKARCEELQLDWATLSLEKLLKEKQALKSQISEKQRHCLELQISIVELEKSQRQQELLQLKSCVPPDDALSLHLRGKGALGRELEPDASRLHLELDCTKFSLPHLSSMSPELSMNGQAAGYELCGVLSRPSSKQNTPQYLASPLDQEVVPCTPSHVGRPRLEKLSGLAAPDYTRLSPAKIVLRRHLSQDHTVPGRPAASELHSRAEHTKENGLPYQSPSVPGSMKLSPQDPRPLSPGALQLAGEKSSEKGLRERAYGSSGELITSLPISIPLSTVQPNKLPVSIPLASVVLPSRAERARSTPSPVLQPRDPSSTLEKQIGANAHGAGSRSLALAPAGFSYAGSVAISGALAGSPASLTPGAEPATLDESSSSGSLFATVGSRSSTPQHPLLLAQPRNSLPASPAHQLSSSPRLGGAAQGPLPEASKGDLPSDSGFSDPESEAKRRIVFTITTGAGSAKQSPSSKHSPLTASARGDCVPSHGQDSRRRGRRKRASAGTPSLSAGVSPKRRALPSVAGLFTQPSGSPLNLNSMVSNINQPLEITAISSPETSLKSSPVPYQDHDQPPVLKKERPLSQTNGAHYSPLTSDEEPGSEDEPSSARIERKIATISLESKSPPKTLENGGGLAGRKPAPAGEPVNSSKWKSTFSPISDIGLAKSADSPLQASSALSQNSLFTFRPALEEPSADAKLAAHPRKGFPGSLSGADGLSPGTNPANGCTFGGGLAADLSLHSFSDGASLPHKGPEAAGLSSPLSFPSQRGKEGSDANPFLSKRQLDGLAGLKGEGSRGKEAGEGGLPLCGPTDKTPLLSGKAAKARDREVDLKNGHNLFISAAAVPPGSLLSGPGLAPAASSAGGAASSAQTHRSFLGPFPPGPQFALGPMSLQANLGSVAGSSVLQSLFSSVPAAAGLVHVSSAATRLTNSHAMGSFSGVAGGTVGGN

[3] = system: MLL-rearranged cells; experiment: Pre-clinical study with MLL-rearranged and non-MLL rearranged cells (FIG. 3); format: cell-based; conditions: MLL-rearranged vs non-MLL rearranged cells
[4] = Adult Phase 1 dose escalation/expansion study: safety and clinical response; format: in vivo, human; design: key to clinical response, per patient: ▪: Complete Responder (Patient Nos. 16 and 18); ▴: Biological Effect (Leukocytosis) (Patient Nos. 1, 7, 13, 15, and 17); ●: Non-responder (Patient Nos. 2-6, 8-12, and 14)
From the text: This open label dose escalation/expansion study of pinometostat enrolled patients ≥18 years (yrs) with R/R leukemia (NCT01684150). In the dose-escalation phase, patients with AML, ALL, mixed lineage leukemia (MLL), myelodysplastic syndrome, myeloproliferative neoplasm or chronic myeloid leukemia were eligible. […] Pinometostat was given via continuous intravenous infusion (CIV) for 21 of 28 day cycles in the dose escalation phase and CIV for 28 of 28 day cycles in the expansion phase, until disease progression or unacceptable toxicity. All patients underwent serial collection of PK and peripheral blood mononuclear cells (PBMC) for PD. […] As of Jun. 28, 2015, 49 patients have enrolled in the dose escalation and expansion phases. […] Correlations of transcript abundance and DNA variants detected with categorical (responder=CR or PR [n=3], or no response [n=15]) and continuous response parameters (time on study (“TOS”), mean=59 days: range=8-196 days) were performed.

[5] = system: H3K79-me2 at MLL-r target genes HOXA9 and MEIS1; experiment: Adult Phase 1 study: H3K79-me2 ChIP-Seq in leukemic blasts; format: in vivo, human; conditions: 9 patients, 90 mg/m^2 expansion cohort
Description: (§1) This open label dose escalation/expansion study of pinometostat enrolled patients ≥18 years (yrs) with R/R leukemia (NCT01684150). In the dose-escalation phase, patients with AML, ALL, mixed lineage leukemia (MLL), myelodysplastic syndrome, myeloproliferative neoplasm or chronic myeloid leukemia were eligible. Eligibility in the two expansion cohorts: 90 mg/m^2 (n=17) and 54 mg/m^2 (n=6), was restricted to patients with MLL-r or MLL-partial tandem duplication (MLL-PTD). Pinometostat was given via continuous intravenous infusion (CIV) for 21 of 28 day cycles in the dose escalation phase and CIV for 28 of 28 day cycles in the expansion phase, until disease progression or unacceptable toxicity. All patients underwent serial collection of PK and peripheral blood mononuclear cells (PBMC) for PD. Leukemic blasts were isolated from PBMCs using flow cytometry and quantified for dimethylation of H3K79 (H3K79-me2) by ChIP-Seq.

[6] = Adult Phase 1 study: pharmacokinetics; format: in vivo, human; conditions: adults, CIV
Description: as §1

[7] = Pediatric Phase 1 study: safety; format: in vivo, human; conditions: children with R/R leukemia
Description: (§2) An open label dose escalation study of pinometostat was performed in patients (pts) aged 3 months to 18 […] leukemia (NCT02141828). Pinometostat was administered via continuous intravenous infusion until disease progression or unacceptable toxicity. Patients were assigned to one of two age-based dose escalation […] developed from simulations of pediatric exposures using a previously reported physiologically-based PK (PBPK) model (Waters, 2014). All patients underwent serial collection of PK and peripheral blood mononuclear cells (PBMC) for PD. Leukemic blasts were isolated from PBMCs using flow cytometry and quantified for di-methylation of H3K79 (H3K79-me2) by ChIP-Seq. As of Jun. 28, 2015, 11 patients have enrolled in the dose escalation of the study consisting of 10 patients (6 patients at 70 mg/m^2/day, 4 patients at 90 mg/m^2/day) in the older age cohort (1 to 18 yr) and 1 patient (45 mg/m^2/day) in the younger age cohort (<1 yr).

[8] = system: H3K79-me2 at MLL-r target genes HOXA9 and MEIS1; experiment: Pediatric Phase 1 study: H3K79-me2 ChIP-Seq in leukemic blasts; format: in vivo, human; conditions: 2 of 2 pediatric patients analyzed
Description: as §2, with “ChIP-Seq.” for “ChIP-Seq. As of Jun. 28, 2015, 11 patients have enrolled in the dose escalation of the study consisting of 10 patients (6 patients at 70 mg/m^2/day, 4 patients at 90 mg/m^2/day) in the older age cohort (1 to 18 yr) and 1 patient (45 mg/m^2/day) in the younger age cohort (<1 yr).”

[9] = Pediatric Phase 1 study: pharmacokinetics; format: in vivo, human
Description: as §2, with “ChIP-Seq.” for “ChIP-Seq. As of Jun. 28, 2015, 11 patients have enrolled in the dose escalation of the study consisting of 10 patients (6 patients at 70 mg/m^2/day, 4 patients at 90 mg/m^2/day) in the older age cohort (1 to 18 yr) and 1 patient (45 mg/m^2/day) in the younger age cohort (<1 yr).”

[10] = system: 14 cell lines (MLL-r or MLL-PTD); experiment: Cell proliferation in 14 cell lines; format: cell-based
Description: RNA and DNA were isolated from PBMCs and/or bone marrow collected prior to treatment from 18 patients enrolled in the adult pinometostat Phase 1 study (CT.gov: NCT01684150), at the following doses 24 (n=2), 36 (n=3), 54 (n=6), 80 (n=3) and 90 mg/m^2/day doses (n=4). mRNA transcript abundance was assessed using whole genome RNASeq and DNA variants were determined using a 194 gene panel, MyAML (Genection Inc.). Correlations of transcript abundance and DNA variants detected with categorical (responder=CR or PR [n=3], or no response [n=15]) and continuous response parameters (time on study (“TOS”), mean=59 days: range=8-196 days) were performed. For cell lines, whole genome RNASeq data was generated from 14 cell lines (MLL-r or MLL-PTD) with a range of in vitro sensitivity to pinometostat (cell proliferation IC50 2 nM to >10 μM) and RNA transcripts identified as correlated with IC5o were submitted for pathway analysis.

[11] = system: MLL-rearranged cells and xenografts; conditions: cited from earlier work
[12] = Stein 2014 ASH abstract 387; cited from earlier work
[13] = 18 adult patients of biomarker analysis
[14] = dose level 24 mg/m^2, listed as pinometostat
[15] = dose level 36 mg/m^2, listed as pinometostat
[16] = dose level 54 mg/m^2, listed as pinometostat
[17] = dose level 90 mg/m^2, listed as pinometostat

CNC(=O)c1cc(Oc2ccc(NC(=O)Nc3ccc(Cl)c(C(F)(F)F)c3)cc2)ccn1 [Sorafenib, reference compound]
effect on inhibition of cell growth, combination of RAS pathway inhibitor and pinometostat [1]: synergistic effect

O=C(Nc1ccc2[nH]nc(-c3ccncc3)c2c1)[C@@H]1CCN(CC(=O)N2CCN(c3ccc(-c4ncccn4)cc3)CC2)C1 [SCH772984, reference compound]
effect on inhibition of cell growth, combination of RAS pathway inhibitor and pinometostat [1]: synergistic effect

CC(C)N(C[C@H]1O[C@@H](n2cnc3c(N)ncnc32)[C@H](O)[C@@H]1O)[C@H]1C[C@@H](CCc2nc3cc(C(C)(C)C)ccc3[nH]2)C1 [Compound A2, (2R,3R,4S,5R)-2-(6-amino-9H-purin-9-yl)-5-((((1r,3S)-3-(2-(5-(tert-butyl)-1H-benzo[d]imidazol-2yl)ethyl)cyclobutyl)(isopropyl)amino)methyl)tetrahydrofuran-3,4-diol]
affinity for DOT1L [2]: sub-nanomolar | killing of genetically defined cancer cells [3]: selective killing | time on study (TOS), mean [4, 13]: 59 days | time on study (TOS), range [4, 13]: 8 to 196 days | safety profile ([4]; CIV, adults with R/R leukemia): acceptable safety profile | differentiation effect in patients with MLL-r ([4]; FIG. 8, micrographs of blood and bone marrow): leads to a differentiation effect | drug-related treatment discontinuations ([4]; adult MLL-r and MLL-PTD, 90 mg/m^2/day uninterrupted, expansion stage): no drug-related treatment discontinuations | objective response: PR ([4]; adults, 49 patients): 1 pt | objective response: cytogenetic CR (MLL negative by FISH) ([4]; adults, 49 patients): 1 pt | objective response: morphologic CR ([4]; adults, 49 patients): 1 pt | resolution of leukemia cutis ([4]; adults, 49 patients): 3 pts | patients with leukocytosis or differentiation ([4]; adults, absolute monocyte and neutrophil 50% above baseline and above upper limit of normal): Nine | Time on Study, per patient [4, 14]: 49 days and 8 days | clinical response, per patient [4, 14]: ● and ▴ | Time on Study, per patient [4, 15]: 33 days and 65 days and 21 days | clinical response, per patient [4, 15]: ▴ (2×) and ● | Time on Study, per patient [4, 16]: 49 days and 110 days and 196 days and 21 days | clinical response, per patient [4, 16]: ● (2×) and ▪ (2×) | clinical response, per patient ([4]; dose level 80 mg/m^2): ● | Time on Study, per patient ([4]; dose level 80 mg/m^2, listed as pinometostat): 41 days and 82 days | Time on Study, per patient [4, 17]: 31 days and 38 days and 50 days and 86 days and 136 days and 15 days and 28 days | clinical response, per patient [4, 17]: ● (5×) and ▴ (2×) | median inhibition of H3K79-me2 methylation at HOXA9 and MEIS1 [5]: 61% | range of inhibition of H3K79-me2 methylation at HOXA9 and MEIS1 [5]: 13- 91% | attainment of steady-state plasma concentrations (Css) [6]: Day 1 | dose proportionality of PK [6]: Dose proportional PK | safety profile [7]: acceptable safety profile | range of inhibition of H3K79-me2 methylation at HOXA9 and MEIS1 [8]: 44-72% | Steady-state CSF concentrations ([9]; children): < 2 ng/mL | Steady-state plasma concentrations (Css) ([9]; children ≥1 yr, 70 and 90 mg/m^2 doses): 800 to 1600 ng/mL | IC50 ([10]; least sensitive of 14 cell lines, read-out: cell proliferation IC50, upper end of range): > 10000 nM | IC50 ([10]; most sensitive of 14 cell lines, read-out: cell proliferation IC50, lower end of range): 2 nM | effect on inhibition of cell growth, combination of RAS pathway inhibitor and pinometostat [1]: synergistic effect; also recorded: synergistic cell killing | MLL target gene expression [11]: decreased | histone H3K79 methylation [11]: reduced | leukemia cell kill ([11]; listed as Pinometostat): induced selective leukemia cell kill | leukemia cell kill ([11]; listed as pinometostat): selective leukemia cell kill | clinical activity, preliminary results of the adult trial [12]: complete remissions in a subset of patients

Reference: US20200009176A1, “TREATMENT OF LEUKEMIA VIA THE ADMINISTRATION OF DOT1L INHIBITOR PINOMETOSTAT” (Epizyme, Inc., priority 2014, published 2020)
